The values that follow come from PubChem BioAssay (NCI).

What all share (assay): NCI anticancer screen, dose series, 48 h
The test system of test [1] is SNB-19 CNS.
Test [2] has as its system UACC-62 melanoma.
Test [3] relates to ACHN renal.
The test system of test [4] is OVCAR-5 ovarian.
Test [5] deals with T-47D breast.
The test system of test [6] is LOX IMVI melanoma.
For test [7], the system named is M14 melanoma.
Test [8] deals with HCT-15 colon.
Test [9] deals with HL-60(TB) leukemia.

SMILES strings stand for the structures.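 Cultured in 96-well plates, cells were exposed to test compound for 48 hours across five concentrations. TGI denotes the concentration required for complete inhibition of growth.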 A value given as a limit tells only on which side of the number the result lay.

With `O=C(CN=C(CN(c1ccccc1)c1ccccc1)Oc1ccc(Cl)cc1Cl)n1ccnc1`, the TGI in [1], in [2], in test [3], in [4], in test [5] and in [6] was above 100 µM each time. Moreover, the TGI in [7] and in test [8] was above 100 µM throughout.

As for `CCCCC1(O)CC2CC1C(C)C2(C)C` (stereo not drawn), the TGI in test [1] is above 100 µM; in test [2] it was above 100 µM; in test [4], above 100 µM; in test [9], 64.6 µM; in [6], above 100 µM; in test [7], above 100 µM. This compound showed a TGI in test [8] above 100 µM.

Take `O=S(=O)(CCC[C@H]1[C@@H](CCOCc2ccccc2)C2CCCN1O2)c1ccccc1` (stereo partly drawn): the TGI in [1], in test [2], in test [3], in test [4], in test [5] and in [7] was above 100 µM in each case. The same compound displayed a TGI in test [8] above 100 µM.

As to `O=[N+]([O-])/C(Cl)=C/C(=C1/Nc2ccccc2O1)[N+](=O)[O-]`, the TGI was 45.5 µM in [1]; 56.7 µM in test [2]; 37.5 µM in test [3]; above 100 µM in test [5]; 37.7 µM in test [9]; 23.1 µM in test [6]. Besides, the figures for the TGI in test [7] and in test [8] were 51.1 µM and 42 µM, respectively.

Take `C=C(Cl)C(C)(Cl)CCC(Cl)C(C)C` (stereo not drawn): the TGI was above 100 µM in test [1]; above 100 µM in test [2]; above 100 µM in test [3]; above 100 µM in [4]; above 100 µM in [9]; 47.6 µM in [6]. This compound also returned a TGI in test [7] above 100 µM.

In the case of `NC(=O)Cn1c(=O)oc2cc(C(=O)CN3CCOCC3)ccc21`, the TGI in test [1], in test [4], in [9], in test [6] and in [7] was above 100 µM throughout.

In the case of `COC(=O)Cn1c(=O)oc2nc(-c3ccccc3)cc(C(F)(F)F)c21`, the TGI in [1], in test [2], in test [3], in [4], in [5] and in [7] was above 100 µM each time. Also, in test [8], the TGI is above 100 µM.

Regarding `NC(=O)CCC(NC(=O)c1c2ccccc2nc2ccccc12)C(=O)O` (stereo not drawn), the TGI in test [1], in test [2], in [3], in [4], in [6] and in test [7] was above 100 µM in each case. The compound also came in with a TGI in test [8] above 100 µM.

On to `O=C(NCCCN(CCCCN(CCCNC(=O)c1cc(S(=O)(=O)O)cc(O)c1O)C(=O)c1cc(S(=O)(=O)O)cc(O)c1O)C(=O)c1cc(S(=O)(=O)O)cc(O)c1O)c1cc(S(=O)(=O)O)cc(O)c1O`, for which the TGI in test [1], in test [2], in test [3], in test [5], in test [9] and in test [6] was above 100 µM in each case. In test [8], this compound gave a TGI above 100 µM.

Take `CCOC(=O)C(NC(=O)CC)(Nc1ccc(F)cc1F)C(F)(F)F` (stereo not drawn): the TGI in test [1], in test [3], in [4], in [5], in test [9] and in [6] was above 100 µM throughout. Further, the TGI in [7] and in test [8] was above 100 µM throughout.

Turning to `O=c1[nH]nc(Cc2ccccc2)n1/N=C/c1ccc([N+](=O)[O-])cc1`, the TGI in [2], in test [3], in test [4], in test [5], in test [9] and in test [6] was above 100 µM each time. For the same compound, in test [8], the TGI was above 100 µM.

As to `Cc1ccccc1Nc1nc(NNC(=O)Cc2ccccc2)nc(NNC(=O)c2ccncc2)n1`, the TGI in [2], in test [5], in test [9], in test [6], in test [7] and in test [8] was above 10 µM in each case.

On to `COc1cc(C2c3cc4c(cc3OC(NCCO)C2C)OCO4)cc(OC)c1O` (stereo not drawn), for which the TGI is above 100 µM in test [1]; above 100 µM in [2]; above 100 µM in [4]; above 100 µM in test [5]; above 100 µM in [7]; 46.9 µM in test [8].

Take `CCOC(=O)c1sc2nc1CSc1sc(=S)sc1SCc1nc(sc1C(=O)OCC)-c1nc(c(C(=O)OCC)s1)CSc1sc(=S)sc1SCc1nc-2sc1C(=O)OCC`: the TGI in test [1], in test [2], in test [3], in test [4], in [5] and in [9] was above 10 µM throughout. The TGI in test [6] and in [8] was above 10 µM each time.

Turning to `O=c1[nH]c(=O)n(CCOc2ccc(Cl)cc2)cc1Nc1ccccc1`, the TGI in [1], in test [2], in test [3], in test [4], in [9] and in [6] was above 100 µM in each case. In addition, the TGI in test [7] and in test [8] was above 100 µM each time.

Consider `O=c1[nH]c2c(c(=O)[nH]1)C(c1ccc([N+](=O)[O-])cc1)c1c([nH]c(=O)[nH]c1=O)O2`, for which the TGI in test [1], in [2], in test [3], in [4], in test [9] and in [7] was above 100 µM in each case. The TGI in test [8] was above 100 µM.

For `CC(C)(C)[Si](C)(C)OCC1OC(n2ccc(=O)[nH]c2=O)C(O[Si](C)(C)C(C)(C)C)[C@]12O[C@@H]2CO` (stereo partly drawn), the TGI was 24 µM in test [1]; 36.8 µM in [2]; 24.2 µM in test [3]; 40.6 µM in test [4]; 40.9 µM in [6]; 43.2 µM in test [7]. Further, in test [8], the TGI was determined as 31.1 µM.

Take `Cc1cc(C)nc(NS(=O)(=O)c2ccc(NC(=O)NC(F)(F)F)cc2)n1`: the TGI in test [1], in test [3], in test [4], in test [5], in test [9] and in test [6] was above 100 µM throughout. Besides, the TGI in test [7] and in test [8] was above 100 µM in each case.
